Read-outs that look alike come from different tables or passages of the source.
Tests used:
hot flashes [1] = settings: cited from earlier work; for minimizing occurrence and severity of hot flashes versus placebo: randomized clinical trials
hot flashes [2] = test: Case report: risperidone for hot flashes in a case with hysterectomy; assay type: in vivo, human; settings: for response of hot flashes to earlier treatments: person, PREMARIN 0.625 mg/day, PROZAC 20 mg/day, TOFRANIL 20 mg/day, each for 1-2 months
Experimental: A person was admitted to the hospital in December of 2004 due to hot flashes, hypertension, and restlessness. They had been told that they were suffering from essential hypertension for 16 years and had taken anti-hypertension medications for several years. However, their blood pressure still fluctuated and frequently dropped below critical level after taking sublingual adalate (10 mg) for sudden onsets of high blood pressure. They had no history of psychiatric or systemic diseases, except for a total abdominal hysterectomy. On admission, it was observed that their hot flash attacks occurred many times a day, lasting a few minutes and was usually followed by high blood pressure up to 180-200/84-96 mmHg, general shivers, and anxiety for 20-60 minutes. Such clinical symptoms started and grew progressively worse.
[…] biochemical and hematological results, such as sodium and potassium levels, 140 mmol/L and 4.0 mmol/L, respectively, were all within normal ranges. […] The plasma adrenaline, nor-adrenaline, VMA, epinephrine, and dopamine levels as well as thyroid hormones, including T3, T4, and TSH, were also normal.
Because estrogen withdrawal may alter the thermoregulatory set-point located in the hypothalamus, by increasing the sensitivity of hypothalamic 5-HT2A receptor, a regimen of a 5-HT2A antagonist may provide an effective therapy for symptoms of hormonal variations, such as hot flashes. Thus, the patient was treated with risperidone (2 mg/day). […] Thereafter, the dosage of anti-hypertension drugs was reduced. With the patient's permission, risperidone therapy was discontinued and hot flashes reoccurred within 2-3 days after discontinuing the treatment. The symptoms were again alleviated 3-4 days after resuming risperidone treatment.

[3] = tested on: cholinergic muscarinic receptors; settings: cited from earlier work
histamine receptors = settings: cited from earlier work
α-adrenergic receptors = settings: cited from earlier work
hot flashes [4] = settings: cited from earlier work
hot flashes [5] = settings: pilot trials; cited from earlier work
hot flashes [6] = settings: men and women; placebo 20 percent; cited from earlier work
hot flashes [7] = settings: other pilot evaluations; compared with venlafaxine and paroxetine; cited from earlier work
D2 dopamine receptor = D2 dopamine receptor (Homo sapiens, UniProt P14416); settings: serial PET scans; cited from earlier work
hot flashes [8] = test: Case report: risperidone for hot flashes in a perimenopausal case; assay type: in vivo, human
Experimental: Patient 3 was a person who was diagnosed with perimenopause, based on increased levels of follicle-stimulating hormone, increased variability in menstrual cycle length, development of hot flashes, and insomnia. The patient had had these symptoms for two years. […] Risperidone treatment (1 mg per night) was started. At that time, the patient was experiencing seven hot flashes per day. […] With their permission, risperidone was tapered off over two days, and the hot flashes developed again three days later.

hot flashes [9] = test: Case report: risperidone for hot flashes of natural menopause; assay type: in vivo, human
Text: Patient 2 was a person who began developing intolerable hot flashes and night sweats after natural menopause that occurred seven years ago. […] One month after discontinuing hormone replacement therapy, they developed hot flashes up to ten times per day, night sweats up to three times per night that disrupted their sleep, and headaches. The patient then sought neurological consultation. The patient also suffered from headaches twice per day and fluctuating blood pressure. […] In addition, they slept well and their blood pressure stabilized. To assess the relationship between risperidone therapy and the resolution of hot flashes, risperidone was tapered off over 2 days. The patient experienced hot flashes and night sweats again two days after risperidone treatment was completely discontinued.

hot flashes [10] = test: Case report: risperidone for residual hot flashes in a case with hormone replacement therapy; assay type: in vivo, human
Text: Patient 4 was a person who had developed hot flashes, with a frequency of once per hour, palpitation, insomnia, headache, restlessness, and unstable blood pressure for over seven years. Initially, the patient visited a psychiatrist for their sleep disorder and a cardiovascular specialist for their high blood pressure. A year later, because of intolerable hot flashes and other menopausal symptoms, they received hormone replacement therapy (DIVINA®). Although their hot flashes were reduced to twice per day, headaches persisted and their blood pressure fluctuated from 180 to 210/110 to 90 mm Hg despite treatment with anti-hypertension drugs. The patient was started on risperidone treatment, 1 mg at bedtime for the first two days, followed by 2 mg per night, for residual hot flashes.

dopamine receptors = settings: cited from earlier work
serotonin receptors = settings: cited from earlier work
D1 dopamine receptor = D1 dopamine receptor (Homo sapiens, UniProt P21728); settings: cited from earlier work
D2 receptors = D2 receptors (Homo sapiens, UniProt P14416); settings: cited from earlier work
D2 receptors, sequence (P14416 whole entry): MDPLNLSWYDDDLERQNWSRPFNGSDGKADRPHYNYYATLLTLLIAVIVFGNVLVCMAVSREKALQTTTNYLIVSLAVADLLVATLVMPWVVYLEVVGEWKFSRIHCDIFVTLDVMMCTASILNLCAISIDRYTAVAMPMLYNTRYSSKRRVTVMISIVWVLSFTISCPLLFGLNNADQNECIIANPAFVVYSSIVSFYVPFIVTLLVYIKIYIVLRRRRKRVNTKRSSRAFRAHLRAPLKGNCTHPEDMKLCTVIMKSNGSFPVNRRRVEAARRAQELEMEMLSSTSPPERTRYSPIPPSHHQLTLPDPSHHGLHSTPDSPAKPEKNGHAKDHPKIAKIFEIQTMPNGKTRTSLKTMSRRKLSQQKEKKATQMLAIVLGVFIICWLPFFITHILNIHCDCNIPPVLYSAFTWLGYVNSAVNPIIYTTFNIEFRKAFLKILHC

D2 dopamine receptor, sequence (P14416 whole entry): as above
D1 dopamine receptor, sequence (P21728 whole entry): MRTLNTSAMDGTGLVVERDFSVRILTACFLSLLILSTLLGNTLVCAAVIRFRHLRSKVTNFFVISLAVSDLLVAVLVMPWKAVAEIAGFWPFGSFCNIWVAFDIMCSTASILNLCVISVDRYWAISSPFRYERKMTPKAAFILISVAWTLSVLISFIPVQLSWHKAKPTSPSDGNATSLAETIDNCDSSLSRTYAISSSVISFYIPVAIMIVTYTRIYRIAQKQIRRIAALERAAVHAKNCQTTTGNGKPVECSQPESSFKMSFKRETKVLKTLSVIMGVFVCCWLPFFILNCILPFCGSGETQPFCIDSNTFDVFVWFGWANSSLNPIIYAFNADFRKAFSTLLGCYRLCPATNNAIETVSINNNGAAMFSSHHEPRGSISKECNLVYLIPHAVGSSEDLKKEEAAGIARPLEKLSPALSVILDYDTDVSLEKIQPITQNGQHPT

CNCCC(Oc1ccc(C(F)(F)F)cc1)c1ccccc1 (stereo not drawn) [Fluoxetine]
reduction in hot-flash scores (hot flashes [1]; 20 mg/day, placebo 36%, P=0.02): 50% | response of hot flashes to earlier treatments (hot flashes [2]): limited success

CN(C)CCCN1c2ccccc2CCc2ccccc21.Cl [TOFRANIL®]
response of hot flashes to earlier treatments (hot flashes [2]): limited success

O=C1CCc2ccc(OCCCCN3CCN(c4cccc(Cl)c4Cl)CC3)cc2N1 [aripiprazole]
affinity [3]: no appreciable affinity | affinity (histamine receptors): moderate affinities | affinity (α-adrenergic receptors): moderate affinities

Clc1cccc(Cl)c1N=C1NCCN1 [clonidine]
adverse effects (hot flashes [4]; common adverse effects in clinical trials): dry mouth, dizziness, and blurred vision | difference from placebo effect, self-reported hot flash frequency (hot flashes [4]; men, double blind cross over study): not statistically significant | efficacy against hot flashes versus placebo (hot flashes [4]; randomized clinical trials): moderately more efficacious than placebo | decrease of hot flash frequency greater than that seen with placebo (hot flashes [4]; women): 10-15%

NCC1(CC(=O)O)CCCCC1 [gabapentin]
reduction of the incidence of hot flashes (hot flashes [5]): 42%-70%

CC(=O)O[C@]1(C(C)=O)CC[C@H]2[C@@H]3C=C(C)C4=CC(=O)CC[C@]4(C)[C@H]3CC[C@@]21C [megestrol acetate]
reduction in self-reported hot flash frequency (hot flashes [6]): ~80%

CN1CCN2c3ncccc3Cc3ccccc3C2C1 (stereo not drawn) [mirtazapine]
alleviation of hot flashes (hot flashes [7]): alleviate hot flashes to a similar degree

Fc1ccc([C@@H]2CCNC[C@H]2COc2ccc3c(c2)OCO3)cc1 [paroxetine]
minimizing occurrence and severity of hot flashes versus placebo (hot flashes [1]): more effective than placebo

OCCOCCN1CCN(C2=Nc3ccccc3Sc3ccccc32)CC1 [quetiapine]
dissociation from the D2 receptor (D2 dopamine receptor): rapidly disassociates

Cc1nc2n(c(=O)c1CCN1CCC(c3noc4cc(F)ccc34)CC1)CCCC2 [risperidone]
hot flashes at decreased dosage (hot flashes [8]; risperidone 0.25 mg or less per day, three months later): still markedly eliminated | hot flashes after resuming treatment (hot flashes [8]; risperidone 1 mg daily resumed): no longer experienced hot flashes | quality of sleep and life (hot flashes [8]; risperidone 1 mg daily resumed): improved | frequency and intensity of hot flashes (hot flashes [8]; risperidone 1 mg per night, three days after start, before: seven hot flashes per day): markedly reduced | time to return of hot flashes after tapering off (hot flashes [8]; risperidone tapered off over two days): three | hot flashes after resuming treatment (hot flashes [9]; risperidone 2 mg daily resumed): has not suffered another hot flash since | blood pressure (hot flashes [9]; risperidone 2 mg per day): stabilized | sleep (hot flashes [9]; risperidone 2 mg per day): slept well | occurrence of hot flashes (hot flashes [9]; risperidone 2 mg per day, by day 7): completely eliminated | occurrence of hot flashes (hot flashes [9]; risperidone 2 mg per day, two days after start, before: up to ten times per day): reduced markedly | time to return of hot flashes and night sweats after treatment completely discontinued (hot flashes [9]; risperidone tapered off over 2 days): two | residual hot flashes (hot flashes [10]; risperidone 1 mg at bedtime for two days, then 2 mg per night, three days after start): completely eliminated | blood pressure (hot flashes [10]; risperidone 1 mg then 2 mg per night): stabilized within the normal range | associated symptoms (palpitation, anxiety) (hot flashes [2]; risperidone 2 mg/day): improved significantly | hot flash frequency (hot flashes [2]; risperidone 2 mg/day, after three days of treatment, before: many times a day): reduced markedly to a frequency of once per 1-2 weeks | time to reoccurrence of hot flashes after discontinuing treatment (hot flashes [2]; risperidone discontinued): 2 to 3 days | time to alleviation of symptoms after resuming treatment (hot flashes [2]; risperidone resumed): 3 to 4 days

COc1ccc(C(CN(C)C)C2(O)CCCCC2)cc1 (stereo not drawn) [venlafaxine]
reduction in hot-flash scores (hot flashes [1]; low-dose (37.5 mg/day), placebo 27%): 37% | reduction in hot-flash scores (hot flashes [1]; moderate and high doses (75 and 150 mg/day)): 61% | minimizing occurrence and severity of hot flashes versus placebo (hot flashes [1]): more effective than placebo

O=C1Cc2cc(CCN3CCN(c4nsc5ccccc45)CC3)c(Cl)cc2N1 [ziprasidone]
affinity (histamine receptors): moderate affinity | affinity (dopamine receptors): high affinity | affinity (serotonin receptors): high affinity | affinity (α-adrenergic receptors): high affinity

CN(C)CCOC1=Cc2ccccc2Sc2ccc(Cl)cc21 [zotepine]
affinity (D1 dopamine receptor): high affinity | affinity (D2 receptors): high affinity

estrogen
response to estrogen therapy (hot flashes [8]; perimenopausal person): responded well
